In this assay the test system is 485176-168-R4-J1-PDC complex spheroid growth. Nature of the assay: Anticancer human tumor 485176-168-R4-J1-PDC patient-derived pancreatic adenocarcinoma cell line growth inhibition [RAS]. Conditions: for viability, T/C: stronger effect = lower value. The essentials:
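Multi-cell-type spheroids: tumor cells plus HUVEC endothelial cells and mesenchymal stem cells. RAS-pathway inhibitors were combined with targeted agents, each dosed in half-log steps down from clinical Cmax, or from 10 microM when Cmax was unknown.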

Each structure is given as a SMILES string. Where “and” joins values, the source holds several entries; their conditions need not be identical. Identical values can stand only once.
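Also: spheroids exposed to compounds for seven days before readout.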
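For viability, T/C in this document: luminescence viability expressed relative to DMSO vehicle wells set as 100%.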

Regarding `CC(C)n1nc(-c2ccc3oc(N)nc3c2)c2c(N)ncnc21` + C#Cc1c(F)ccc2cc(O)cc(-c3ncc4c(N5CC6CCC(C5)N6)nc(OCC56CCCN5CC(F)C6)nc4c3F)c12, the IC50 runs as follows: (curve of first compound, second compound 0.0316 µM) 0.0318 µM; (curve of first compound, second compound 0.1 µM) 0.019 µM; (curve of first compound, second compound 0.316 µM) 0.0346 µM; (curve of first compound, second compound 1 µM) 0.025 µM; (curve of first compound, second compound 3.16 µM) 0.0221 µM; (curve of first compound, second compound 10 µM) 0.0233 µM. In addition, the viability, T/C (second compound 0.0316 µM, first compound 0.000316 µM) was 100%; the viability, T/C (second compound 0.0316 µM, first compound 0.001 µM) was 106%; the viability, T/C (second compound 0.0316 µM, first compound 0.00316 µM) is 88.6%; the viability, T/C (second compound 0.0316 µM, first compound 0.01 µM) was 82.3%; the viability, T/C (second compound 0.0316 µM, first compound 0.0316 µM) was 49%; the viability, T/C (second compound 0.0316 µM, first compound 0.1 µM) was 19.8%. Moreover, the viability, T/C runs as follows: (second compound 0.1 µM, first compound 0.000316 µM) 96.2%; (second compound 0.1 µM, first compound 0.001 µM) 107%; (second compound 0.1 µM, first compound 0.00316 µM) 65.4%; (second compound 0.1 µM, first compound 0.01 µM) 69.2%; (second compound 0.1 µM, first compound 0.0316 µM) 39%; (second compound 0.1 µM, first compound 0.1 µM) 23.7%. The viability, T/C is, setting by setting: (second compound 0.316 µM, first compound 0.000316 µM) 98.3%; (second compound 0.316 µM, first compound 0.001 µM) 78.5%; (second compound 0.316 µM, first compound 0.00316 µM) 82.5%; (second compound 0.316 µM, first compound 0.01 µM) 63.1%; (second compound 0.316 µM, first compound 0.0316 µM) 61.7%; (second compound 0.316 µM, first compound 0.1 µM) 20.1%. Further, the viability, T/C reads like this: (second compound 1 µM, first compound 0.000316 µM) 88%; (second compound 1 µM, first compound 0.001 µM) 91.5%; (second compound 1 µM, first compound 0.00316 µM) 86.4%; (second compound 1 µM, first compound 0.01 µM) 55.9%; (second compound 1 µM, first compound 0.0316 µM) 51.9%; (second compound 1 µM, first compound 0.1 µM) 22%. In addition, the viability, T/C is, setting by setting: (second compound 3.16 µM, first compound 0.000316 µM) 91.9%; (second compound 3.16 µM, first compound 0.001 µM) 87.7%; (second compound 3.16 µM, first compound 0.00316 µM) 78.4%; (second compound 3.16 µM, first compound 0.01 µM) 80%; (second compound 3.16 µM, first compound 0.0316 µM) 36.6%; (second compound 3.16 µM, first compound 0.1 µM) 21.5%. The viability, T/C runs as follows: (second compound 10 µM, first compound 0.000316 µM) 92.3%; (second compound 10 µM, first compound 0.001 µM) 81.1%; (second compound 10 µM, first compound 0.00316 µM) 80.8%; (second compound 10 µM, first compound 0.01 µM) 68.9%; (second compound 10 µM, first compound 0.0316 µM) 42.5%; (second compound 10 µM, first compound 0.1 µM) 20.9%.
For `CC(=O)OC12COC1CC(O)C1(C)C(=O)C(O)C3=C(C)C(OC(=O)C(O)C(NC(=O)OC(C)(C)C)c4ccccc4)CC(O)(C(OC(=O)c4ccccc4)C21)C3(C)C` (stereo not drawn), the viability, T/C is 15.6% [middle of 4 runs] (compound 0.0316 µM); 14.3% [middle of 4 runs] (compound 0.1 µM); 12.7% [middle of 4 runs] (compound 0.316 µM); 13.4% and 12.8% and 14.2% (2×) (compound 1 µM); 17.2% [middle of 4 runs] (compound 3.16 µM); 17.7% and 22.4% (2×) and 25.1% (compound 10 µM). Moreover, under “curve of compound”, the IC50 was < 0.0316 µM.
`C=CC(=O)N1CCN(c2nc(OCC3CCCN3C)nc3c(F)c(-c4nc(N)cc(C)c4C(F)(F)F)c(Cl)cc23)C(C)C1` (stereo not drawn): the viability, T/C runs as follows: (compound 0.1 µM) 98.5% [middle of 12 runs]; (compound 1 µM) 102% [middle of 12 runs]. Besides, the half-inhibitory concentration (IC50) was > 1 µM (compound alone, run of 06/10/2024) and > 1 µM (curve of compound).

For orientation: IC50 means the midpoint of a concentration-inhibition curve. One may read the viability, T/C as the result in the treated group divided by that in the control group, in per cent.
